According to patent US20230142338A1, “THIOPHENYL DERIVATIVES USEFUL FOR MODULATING NUCLEIC ACID SPLICING” (REMIX THERAPEUTICS INC., priority 2020, published 2023):

Experiments:
Type in all cases: cell-based
HTT AJ mRNA = experiment: Splicing assay (RT-qPCR): increase in HTT alternative junction (AJ) mRNA; conditions: A673 or K562 cells, 24 hours treatment; concentration having 50% response in AJ mRNA increase
Method in brief: (§1)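 A673 (DMEM/10% FBS) or K562 (IMDM/10% FBS) cells treated 24 h at 37 °C with 11-point 3-fold dilutions, top final 10 uM, DMSO ≤0.25%. Lysates taken directly to RT-qPCR for HTT CJ and AJ isoforms, normalized to GAPDH, GUSB or PPIA. ΔΔCt vs DMSO control converted to RQ (2^−ΔΔCt), then percentage response.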

HTT CJ mRNA [1] = experiment: Splicing assay (RT-qPCR): decrease in HTT canonical junction (CJ) mRNA; conditions: A673 or K562 cells, 24 hours treatment; concentration having 50% response in CJ mRNA decrease
Method in brief: as §1

Target C CJ mRNA = experiment: Gene panel canonical junction qPCR assay: Target C; conditions: Table 3, concentration having 50% response in CJ decrease, read-out: Target C IC50 (decrease in CJ mRNA levels)
Method in brief: (§2)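 A673 or K562 cells were treated 24 h at 37 °C with an 11-point 3-fold dilution series (top 10 uM; ≤0.25% DMSO). Canonical-junction mRNA was then measured in lysates by one-step RT-qPCR. Values were normalized to a housekeeping gene (GAPDH, GUSB or PPIA) and to the DMSO control via 2^(−ΔΔCt).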

SMN2 CJ mRNA = experiment: Gene panel canonical junction qPCR assay: SMN2; conditions: Table 3, concentration having 50% response in CJ decrease, read-out: SMN2 IC50 (decrease in CJ mRNA levels)
Method in brief: as §2

HTT CJ mRNA [2] = experiment: Gene panel canonical junction qPCR assay: HTT; conditions: Table 3, concentration having 50% response in CJ decrease, read-out: HTT IC50 (decrease in CJ mRNA levels)
Method in brief: as §2

SMILES	AC50 (HTT AJ mRNA) [µM]	AC50 (HTT CJ mRNA [1]) [µM]	IC50 (Target C CJ mRNA) [µM]	IC50 (SMN2 CJ mRNA) [µM]	IC50 (HTT CJ mRNA [2]) [µM]
Cc1cn2cc(NC(=O)c3sc(C4CCNCC4)cc3F)c(C)cc2n1 [Compound 178, N-[2,7-dimethylimidazo[1,2-a]pyridin-6-yl]-3-fluoro-5-(piperidin-4-yl)thiophene-2-carboxamide]	1 to 10	1 to 10	> 0.01	0.1 to 1	1 to 10
CCNC1CCN(c2cc(F)c(C(=O)Nc3cc(F)c4nc(C)cn4c3)s2)CC1 [Compound 142, 5-[4-(ethylamino)piperidin-1-yl]-3-fluoro-N-[8-fluoro-2-methylimidazo [1,2-a]pyridin-6-yl]thiophene-2-carboxamide]	1 to 10	1 to 10	1 to 10	1 to 10	1 to 10
Cc1cn2nc(NC(=O)c3sc(C4CCNCC4)cc3F)nc2c(C)n1 [Compound 192, N-[6,8-dimethyl-[1,2,4]triazolo[1,5-a]pyrazin-2-yl]-3-fluoro-5-(piperidin-4-yl)thiophene-2-carboxamide]	> 10	> 10	> 0.01	> 0.01	> 0.01
CC1CN(c2cc(F)c(C(=O)Nc3cc(F)c4cn(C)nc4c3)s2)CCN1 (stereo not drawn) [Compound 163, 3-fluoro-N-(4-fluoro-2-methylindazol-6-yl)-5-(3-methylpiperazin-1-yl)thiophene-2-carboxamide]	> 10	> 10	< 0.1	> 0.01	> 0.01
Cc1nc2c(F)cc(NC(=O)c3sc(N4CCNC(C)C4)cc3F)cc2s1 (stereo not drawn) [Compound 165, 3-fluoro-N-(4-fluoro-2-methyl-1,3-benzothiazol-6-yl)-5-(3-methylpiperazin-1-yl)thiophene-2-carboxamide]	> 10	> 10	0.1 to 1	1 to 10	> 0.01
COc1cc(C2CCNCC2)sc1C(=O)Nc1cc(F)c2nc(C)cn2c1 [Compound 173, N-[8-fluoro-2-methylimidazo [1,2-a]pyridin-6-yl]-3-methoxy-5-(piperidin-4-yl)thiophene-2-carboxamide]	> 10	> 10	> 0.01	> 0.01	> 0.01
Cc1cn2cc(NC(=O)c3sc(N(C)C4CCN(C)CC4)cc3F)cc(F)c2n1 [Compound 150, 3-fluoro-N-[8-fluoro-2-methylimidazo[1,2-a]pyridin-6-yl]-5-[methyl(1-methylpiperidin-4-yl)amino]thiophene-2-carboxamide]	> 10	1 to 10	1 to 10	1 to 10	1 to 10
Cc1cn2cc(NC(=O)c3sc(N4CCNC(C)(C)C4)cc3F)cc(F)c2n1 [Compound 131, 5-(3,3-dimethylpiperazin-1-yl)-3-fluoro-N-[8-fluoro-2-methylimidazo[1,2-a]pyridin-6-yl] thiophene-2-carboxamide]	1 to 10	1 to 10	> 0.01	0.1 to 1	1 to 10
Cc1cn2cc(NC(=O)c3sc(N4CCNC(C)C4)cc3F)cc(C)c2n1 (stereo not drawn) [Compound 172, N-[2,8-dimethylimidazo[1,2-a]pyridin-6-yl]-3-fluoro-5-(3-methylpiperazin-1-yl)thiophene-2-carboxamide]	> 10	> 10	> 0.01	1 to 10	> 0.01
